Measurements as given in paper PMC3073417 (The Journal of neuroscience : the official journal of the …, 2011).

Biological target: hTRPA1 (Homo sapiens, UniProt O75762)
Assay: whole-cell patch clamp of HEK293 cells expressing hTRPA1
Type: cell-based

hTRPA1, sequence (O75762 whole entry): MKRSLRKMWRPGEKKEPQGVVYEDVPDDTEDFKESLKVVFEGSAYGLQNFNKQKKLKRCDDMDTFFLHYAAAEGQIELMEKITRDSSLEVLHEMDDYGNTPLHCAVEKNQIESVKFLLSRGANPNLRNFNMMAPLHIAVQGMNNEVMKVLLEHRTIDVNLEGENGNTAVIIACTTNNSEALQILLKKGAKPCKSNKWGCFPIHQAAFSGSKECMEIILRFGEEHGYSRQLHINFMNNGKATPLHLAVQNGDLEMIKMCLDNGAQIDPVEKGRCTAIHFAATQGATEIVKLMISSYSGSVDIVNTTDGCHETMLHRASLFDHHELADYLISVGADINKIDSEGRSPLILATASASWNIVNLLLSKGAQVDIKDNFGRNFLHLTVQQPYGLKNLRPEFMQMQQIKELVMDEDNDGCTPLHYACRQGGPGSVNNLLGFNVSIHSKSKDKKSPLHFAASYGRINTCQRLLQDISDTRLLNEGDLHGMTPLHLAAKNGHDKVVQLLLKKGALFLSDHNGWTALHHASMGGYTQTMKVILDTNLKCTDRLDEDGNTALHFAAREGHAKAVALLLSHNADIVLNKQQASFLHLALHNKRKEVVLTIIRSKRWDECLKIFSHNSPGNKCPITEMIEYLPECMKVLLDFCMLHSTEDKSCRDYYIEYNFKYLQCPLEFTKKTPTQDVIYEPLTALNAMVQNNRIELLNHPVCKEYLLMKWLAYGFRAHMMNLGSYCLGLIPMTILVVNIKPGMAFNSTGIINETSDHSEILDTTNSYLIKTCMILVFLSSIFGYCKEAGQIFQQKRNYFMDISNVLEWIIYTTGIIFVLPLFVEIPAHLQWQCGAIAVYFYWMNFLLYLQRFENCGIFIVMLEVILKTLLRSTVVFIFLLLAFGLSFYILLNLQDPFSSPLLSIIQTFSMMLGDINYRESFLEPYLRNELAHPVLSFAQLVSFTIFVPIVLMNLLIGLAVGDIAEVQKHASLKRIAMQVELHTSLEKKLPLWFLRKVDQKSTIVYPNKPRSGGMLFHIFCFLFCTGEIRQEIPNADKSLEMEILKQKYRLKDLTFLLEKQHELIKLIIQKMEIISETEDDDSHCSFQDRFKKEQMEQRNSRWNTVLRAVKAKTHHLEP

Q: Which EC50 does the source give for `C/C=C(/C=O)[C@@H](CC=O)CC(=O)OCCc1ccc(O)cc1` [OC, (−)-oleocanthal] here?
A: The EC50 was 2800 nM.
